The values below come from ChEMBL document CHEMBL3864159, “Variation of the aryl substituent on the piperazine ring within the 4-(piperazin-1-yl)-2,6-di(pyrrolidin-1-yl)pyrimidine scaffold unveils potent, non-competitive inhibitors of the inflammatory caspases” (Bioorg Med Chem Lett, 2016).

Each structure is given as a SMILES string. The source made the active and inactive calls. The rule behind the calls is not given here.

In assay [1] the target is T1, Calpain-1 catalytic subunit (Homo sapiens) (UniProt P07384).
T1 sequence (whole entry): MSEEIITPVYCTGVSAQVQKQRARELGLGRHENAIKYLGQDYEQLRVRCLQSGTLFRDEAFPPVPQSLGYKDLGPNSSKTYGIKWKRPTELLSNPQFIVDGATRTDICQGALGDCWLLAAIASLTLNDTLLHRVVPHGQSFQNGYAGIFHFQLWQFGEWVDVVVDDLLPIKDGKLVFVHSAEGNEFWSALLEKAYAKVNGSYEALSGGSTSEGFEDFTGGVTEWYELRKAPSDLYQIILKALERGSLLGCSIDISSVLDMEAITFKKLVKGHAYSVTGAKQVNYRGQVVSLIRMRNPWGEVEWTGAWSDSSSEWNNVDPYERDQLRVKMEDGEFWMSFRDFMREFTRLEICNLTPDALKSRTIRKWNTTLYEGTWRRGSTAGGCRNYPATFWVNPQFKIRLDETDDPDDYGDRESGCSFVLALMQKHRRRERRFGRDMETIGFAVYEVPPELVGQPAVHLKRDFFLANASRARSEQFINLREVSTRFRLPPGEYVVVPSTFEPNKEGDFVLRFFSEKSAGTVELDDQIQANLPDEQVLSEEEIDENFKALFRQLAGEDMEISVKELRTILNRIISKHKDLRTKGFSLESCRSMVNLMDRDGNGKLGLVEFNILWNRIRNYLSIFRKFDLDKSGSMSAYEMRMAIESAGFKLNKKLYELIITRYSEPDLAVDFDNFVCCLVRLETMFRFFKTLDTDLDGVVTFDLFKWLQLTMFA
The experiment in a line: Inhibition of full-length human calpain-1 at 5 uM preincubated for 10 mins followed by Suc-LLVY-AMC substrate addition by fluorescence assay relative to control.

The target in assay [2] is T2, Cathepsin K (Homo sapiens) (UniProt P43235).
T2 sequence (whole entry): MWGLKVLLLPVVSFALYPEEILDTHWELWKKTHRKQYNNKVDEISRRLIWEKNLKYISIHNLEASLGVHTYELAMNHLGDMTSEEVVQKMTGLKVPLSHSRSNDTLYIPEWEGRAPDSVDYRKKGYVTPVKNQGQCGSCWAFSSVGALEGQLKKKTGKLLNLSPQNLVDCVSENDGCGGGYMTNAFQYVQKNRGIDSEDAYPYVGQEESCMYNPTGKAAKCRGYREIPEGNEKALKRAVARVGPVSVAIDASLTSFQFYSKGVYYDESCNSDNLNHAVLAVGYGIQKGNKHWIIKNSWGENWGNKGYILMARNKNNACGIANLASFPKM
The experiment in a line: Inhibition of human recombinant cathepsin-K assessed as residual activity at 5 uM preincubated for 10 mins followed by Z-FR-AMC substrate addition by fluorescence assay relative to control.

Assay [3] deals with T3, Papain (Carica papaya) (UniProt P00784).
T3 sequence (whole entry): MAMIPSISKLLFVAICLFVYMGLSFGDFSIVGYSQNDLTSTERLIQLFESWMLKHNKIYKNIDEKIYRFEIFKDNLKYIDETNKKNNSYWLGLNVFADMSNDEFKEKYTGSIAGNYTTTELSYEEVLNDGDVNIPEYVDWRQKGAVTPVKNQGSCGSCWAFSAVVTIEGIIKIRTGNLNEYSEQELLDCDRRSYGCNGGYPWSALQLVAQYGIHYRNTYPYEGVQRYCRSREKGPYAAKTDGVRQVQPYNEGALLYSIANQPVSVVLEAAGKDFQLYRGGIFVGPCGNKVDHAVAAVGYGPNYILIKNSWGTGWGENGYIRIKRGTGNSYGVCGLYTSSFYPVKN
The experiment in a line: Inhibition of papaya papain at 5 uM preincubated for 10 mins followed by Suc-LLVY-AMC substrate addition by fluorescence assay relative to control.

The target in assay [4] is Cathepsin B (Homo sapiens) (UniProt P07858). The experiment in a line: Inhibition of human recombinant cathepsin-B at 5 uM preincubated for 10 mins followed by Z-FR-AMC substrate addition by fluorescence assay.
For assay [5], the species on record is Homo sapiens. The experiment in a line: Selectivity ratio of Ki for human recombinant DTT-activated caspase-5 expressed in Escherichia coli to Ki for human recombinant N-terminal His-tagged DTT-activated caspase-4 expressed in Escherichia coli.
Assay [6] is filed under the species Homo sapiens. The experiment in a line: Selectivity ratio of Ki for human recombinant N-terminal His-tagged DTT-activated caspase-1 expressed in Escherichia coli to Ki for human recombinant N-terminal His-tagged DTT-activated caspase-4 expressed in Escherichia coli.
Assay [7] concerns the target T2, Cathepsin K (Homo sapiens). As to the kind of experiment: Inhibition of human recombinant cathepsin-K at 5 uM preincubated for 10 mins followed by Z-FR-AMC substrate addition by fluorescence assay.
Assay [8] has as its target T4, Caspase-1 (Homo sapiens) (UniProt P29466).
T4 sequence (whole entry): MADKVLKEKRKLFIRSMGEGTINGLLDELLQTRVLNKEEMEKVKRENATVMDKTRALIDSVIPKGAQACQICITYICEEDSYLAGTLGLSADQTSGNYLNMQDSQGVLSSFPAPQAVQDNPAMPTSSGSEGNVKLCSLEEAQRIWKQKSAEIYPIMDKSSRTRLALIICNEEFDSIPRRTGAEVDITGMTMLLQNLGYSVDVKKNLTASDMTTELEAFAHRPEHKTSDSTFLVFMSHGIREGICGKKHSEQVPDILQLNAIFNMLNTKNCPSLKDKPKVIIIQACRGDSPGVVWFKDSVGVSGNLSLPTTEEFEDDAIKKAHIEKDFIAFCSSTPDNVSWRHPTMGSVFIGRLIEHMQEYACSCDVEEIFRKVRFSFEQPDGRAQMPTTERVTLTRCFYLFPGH
The experiment in a line: Non-competitive inhibition of human recombinant N-terminal His-tagged DTT-activated caspase-1 expressed in Escherichia coli using 5 to 50 uM Ac-WEHD-AMC as substrate preincubated for 30 mins followed by substrate addition by Michaelis-Menten plot analysis.

The species named for assay [9] is Homo sapiens. The experiment in a line: Selectivity ratio of Ki for human recombinant N-terminal His-tagged DTT-activated caspase-1 expressed in Escherichia coli to Ki for human recombinant DTT-activated caspase-5 expressed in Escherichia coli.
For assay [10], the species on record is Homo sapiens. As to the kind of experiment: Selectivity ratio of Ki for human recombinant N-terminal His-tagged DTT-activated caspase-4 expressed in Escherichia coli to Ki for human recombinant DTT-activated caspase-5 expressed in Escherichia coli.

As to `COc1cccc(CN2CCN(c3cc(N4CCCC4)nc(N4CCCC4)n3)CC2)c1`, the inhibition result in assay [1], in [3] and in [4] was “Active” in each case. Further, the Activity in assay [2] came to 78%.
In the case of `c1ccc(CCN2CCN(c3cc(N4CCCC4)nc(N4CCCC4)n3)CC2)cc1`, the Ratio Ki in assay [5] and in assay [6] was 2 throughout. Besides, the inhibition entry in assay [1], in [3], in assay [4], in assay [7] and in assay [8] was “Active” in each case.
Regarding `O=[N+]([O-])c1ccc(CN2CCN(c3cc(N4CCCC4)nc(N4CCCC4)n3)CC2)cc1`, the Ratio Ki in assay [9] and in assay [10] was 10 in each case.
As for `c1cc(CN2CCN(c3cc(N4CCCC4)nc(N4CCCC4)n3)CC2)ccn1`, the Ratio Ki in assay [9] and in [10] was 10 throughout.
As for `c1cncc(CN2CCN(c3cc(N4CCCC4)nc(N4CCCC4)n3)CC2)c1`, the Ratio Ki in assay [9] and in assay [10] was 10 throughout. Besides, the inhibition result in assay [1], in [3], in [4] and in [7] was “Active” each time.
